Key:
[1] = tested on: A549-ACE2 infected with SARS-CoV-2; assay: cell count relative to DMSO; higher = less toxic; conditions: 24 h
Caco-2 [2] = assay: cell viability relative to DMSO; higher = less toxic; conditions: 72 h
Calu-3 [3] = assay: as above; conditions: 72 h
HepG2 [4] = assay: as above; conditions: 72 h
U2OS [5] = assay: as above; conditions: 72 h
Vero E6 [6] = assay: as above; conditions: 72 h
[7] = tested on: A549-ACE2 infected with SARS-CoV-2; assay: SARS-CoV-2 infection rate relative to DMSO; higher = more infection; conditions: 24 h
A549-ACE2 [8] = assay: phospholipidosis EC50; higher = less potent phospholipidosis inducer
A549-ACE2 [9] = assay: drug-induced phospholipidosis relative to tamoxifen; higher = more phospholipidosis
[10] = tested on: A549-ACE2 infected with SARS-CoV-2; assay: morphology score (similarity to uninfected cells); higher = more like uninfected cells; conditions: 24 h
Calu-3 [11] = assay: relative viability EC50 (midpoint between 100% and the lowest measured viability); higher = less toxic; conditions: 72 h
Vero E6 [12] = assay: as above; conditions: 72 h
Caco-2 [13] = assay: drug sensitivity score (DSS) for viability; higher = more toxic; extreme values may be limits of the assay; conditions: 72 h
Calu-3 [14] = assay: as above; conditions: 72 h
HepG2 [15] = assay: as above; conditions: 72 h
U2OS [16] = assay: as above; conditions: 72 h
Vero E6 [17] = assay: as above; conditions: 72 h
Caco-2 [18] = assay: relative viability EC50 (midpoint between 100% and the lowest measured viability); higher = less toxic; conditions: 72 h
HepG2 [19] = assay: as above; conditions: 72 h
U2OS [20] = assay: as above; conditions: 72 h

O=C(NCCN1CCC2(CC1)C(=O)NCN2c1cccc(F)c1)c1ccc2ccccc2c1
Conditions | SARS-CoV-2 infection rate [%] | cell count [%] | cell viability [%] | morphology score | phospholipidosis EC50 [µM]
A549-ACE2 [8], 24 h | – | – | – | – | 2.21
A549-ACE2 [8], 48 h | – | – | – | – | 3.21
A549-ACE2 [8], 72 h | – | – | – | – | 4.55
Caco-2 [2], 1 nM | – | – | 102 | – | –
Caco-2 [2], 10 nM | – | – | 93.5 | – | –
Caco-2 [2], 100 nM | – | – | 95.2 | – | –
Caco-2 [2], 1000 nM | – | – | 90.8 | – | –
Caco-2 [2], 10000 nM | – | – | 52.4 | – | –
Calu-3 [3], 1 nM | – | – | 100 | – | –
Calu-3 [3], 10 nM | – | – | 102 | – | –
Calu-3 [3], 100 nM | – | – | 94.8 | – | –
Calu-3 [3], 1000 nM | – | – | 95 | – | –
Calu-3 [3], 10000 nM | – | – | 11.2 | – | –
HepG2 [4], 1 nM | – | – | 104 | – | –
HepG2 [4], 10 nM | – | – | 106 | – | –
HepG2 [4], 100 nM | – | – | 102 | – | –
HepG2 [4], 1000 nM | – | – | 85.9 | – | –
HepG2 [4], 10000 nM | – | – | 54.5 | – | –
U2OS [5], 1 nM | – | – | 101 | – | –
U2OS [5], 10 nM | – | – | 104 | – | –
U2OS [5], 100 nM | – | – | 97.7 | – | –
U2OS [5], 1000 nM | – | – | 100 | – | –
U2OS [5], 10000 nM | – | – | 71 | – | –
Vero E6 [6], 1 nM | – | – | 103 | – | –
Vero E6 [6], 10 nM | – | – | 95.6 | – | –
Vero E6 [6], 100 nM | – | – | 97.4 | – | –
Vero E6 [6], 1000 nM | – | – | 96.4 | – | –
Vero E6 [6], 10000 nM | – | – | 84.8 | – | –
[1], 0.3 µM | – | 96 | – | – | –
[1], 3 µM | – | 115 | – | – | –
[1], 10 µM | – | 93 | – | – | –
[1], 30 µM | – | 3 | – | – | –
[7], 0.3 µM | 107 | – | – | – | –
[7], 3 µM | 35 | – | – | – | –
[7], 10 µM | 20 | – | – | – | –
[7], 30 µM | 48 | – | – | – | –
[10], 0.3 µM | – | – | – | -0.21 | –
[10], 3 µM | – | – | – | 0.7 | –
[10], 10 µM | – | – | – | 0.39 | –
[10], 30 µM | – | – | – | 0.06 | –

drug-induced phospholipidosis [%], A549-ACE2 [9]
Conditions | 0.3 µM | 0.833333 µM | 3.33333 µM | 6.66667 µM | 10 µM | 30 µM
24 h | 1.19 | 9.12 | 93.1 | 112 | 127 | 127
48 h | 2.88 | 7.95 | 76.2 | 107 | 140 | 134
72 h | 2.25 | 6.48 | 52.3 | 100 | 120 | –

Conditions | drug sensitivity score | relative viability EC50 [µM]
Caco-2 [13] | 4 | –
Calu-3 [11] | – | 2.72
Calu-3 [14] | 5.7 | –
HepG2 [15] | 4.4 | –
U2OS [16] | 1.2 | –
Vero E6 [12] | – | > 10
Vero E6 [17] | 0.5 | –

Nc1ncnc2c1c(-c1cccc(OCc3ccccc3)c1)cn2C1CC(CN2CCCC2)C1 (stereo in doubt) [NVP-ADW742]
Conditions | SARS-CoV-2 infection rate [%] | cell count [%] | cell viability [%] | morphology score | phospholipidosis EC50 [µM]
A549-ACE2 [8], 24 h | – | – | – | – | 5.36
A549-ACE2 [8], 72 h | – | – | – | – | 3.26
Caco-2 [2], 1 nM | – | – | 98.9 | – | –
Caco-2 [2], 10 nM | – | – | 96.1 | – | –
Caco-2 [2], 100 nM | – | – | 98.4 | – | –
Caco-2 [2], 1000 nM | – | – | 74.6 | – | –
Caco-2 [2], 10000 nM | – | – | 34.1 | – | –
Calu-3 [3], 1 nM | – | – | 99.2 | – | –
Calu-3 [3], 10 nM | – | – | 93.1 | – | –
Calu-3 [3], 100 nM | – | – | 107 | – | –
Calu-3 [3], 1000 nM | – | – | 102 | – | –
Calu-3 [3], 10000 nM | – | – | 44.2 | – | –
HepG2 [4], 1 nM | – | – | 89.3 | – | –
HepG2 [4], 10 nM | – | – | 97.4 | – | –
HepG2 [4], 100 nM | – | – | 101 | – | –
HepG2 [4], 1000 nM | – | – | 69.9 | – | –
HepG2 [4], 10000 nM | – | – | 23.2 | – | –
U2OS [5], 1 nM | – | – | 99.1 | – | –
U2OS [5], 10 nM | – | – | 98 | – | –
U2OS [5], 100 nM | – | – | 99 | – | –
U2OS [5], 1000 nM | – | – | 88.9 | – | –
U2OS [5], 10000 nM | – | – | 43.7 | – | –
Vero E6 [6], 1 nM | – | – | 99.9 | – | –
Vero E6 [6], 10 nM | – | – | 95.6 | – | –
Vero E6 [6], 100 nM | – | – | 97.6 | – | –
Vero E6 [6], 1000 nM | – | – | 98.1 | – | –
Vero E6 [6], 10000 nM | – | – | 58.2 | – | –
[1], 0.1 µM | – | 104 | – | – | –
[1], 0.3 µM | – | 93 | – | – | –
[1], 1 µM | – | 82 | – | – | –
[1], 3 µM | – | 101 | – | – | –
[7], 0.1 µM | 98 | – | – | – | –
[7], 0.3 µM | 94 | – | – | – | –
[7], 1 µM | 75 | – | – | – | –
[7], 3 µM | 30 | – | – | – | –
[10], 0.1 µM | – | – | – | 0.14 | –
[10], 0.3 µM | – | – | – | 0.2 | –
[10], 1 µM | – | – | – | 0.46 | –
[10], 3 µM | – | – | – | 0.75 | –

drug-induced phospholipidosis [%], A549-ACE2 [9]
Conditions | 0.3 µM | 0.833333 µM | 3.33333 µM | 6.66667 µM | 10 µM | 30 µM
24 h | 8.61 | 13.3 | 31.4 | 113 | 145 | 158
48 h | 8.35 | 9.24 | 33.7 | 54.9 | – | –
72 h | 7.79 | 5.46 | 31.5 | 52.2 | – | –

Conditions | drug sensitivity score | relative viability EC50 [µM]
Caco-2 [13] | 7 | –
Caco-2 [18] | – | 1.23
Calu-3 [11] | – | 3.32
Calu-3 [14] | 2.9 | –
HepG2 [15] | 8.3 | –
HepG2 [19] | – | 1.19
U2OS [16] | 4.9 | –
U2OS [20] | – | 1.75
Vero E6 [17] | 2.4 | –

From the supplement of paper PMC13380429
